Measurements from publication PMC4897788, “Design, biological evaluation and 3D QSAR studies of novel dioxin-containing pyrazoline derivatives with thiourea skeleton as selective HER-2 inhibitors” (Scientific Reports, 2016).

Legend:
[1] = target: HER-2 (Homo sapiens, UniProt P04626); assay: HER-2 autophosphorylation kinase assay (DELFIA/time-resolved fluorometry); settings: for SI EGFR/HER-2: selectivity index, IC50 EGFR/IC50 HER-2
Description: (§2) A sequence that encodes (His)6 was located at the 5′ upstream to the HER-2 and EGFR sequences. Sf-9 cells were infected for 3 days for protein expression. Sf-9 cell pellets were solubilized at 0 °C in a buffer at pH 7.4 containing 50 mM HEPES, 10 mM NaCl, 1% Triton, 10 μM ammonium molybdate, 100 μM sodium vanadate, 10 μg/mL aprotinin, 10 μg/mL leupeptin, 10 μg/mL pepstatin, and 16 μg/mL benzamidine, HCl for 20 min followed by 20 min centrifugation. Crude extract supernatant was passed through an equilibrated Ni–NTA superflow packed column and washed with 10 mM and then 100 mM imidazole to remove nonspecifically bound material. Histidine-tagged proteins were eluted with 250 and 500 mM imidazole and dialyzed against 50 mM NaCl, 20 mM HEPES, 10% glycerol and 1 μg/mL each of aprotinin, leupeptin, and pepstatin for 2 h. The entire purification procedure was performed at 4 °C or on ice.
(§3) Both EGFR and HER-2 kinase assays were set up to assess the level of autophosphorylation based on DELFIA/Time-Resolved Fluorometry. […] Then, 10 μL of 5× buffer (containing 20 mM HEPES, 2 mM MnCl2, 100 μM Na3VO4, and 1 mM DTT) and 20 μL of 0.1 mM ATP-50 mM MgCl2 was added for 1 h. Positive and negative controls were included in each plate by incubation of enzyme with or without ATP-MgCl2. At the end of incubation, liquid was aspirated and plates were washed three times with wash buffer. A 75 μL (400 ng) sample of europium-labeled anti-phosphotyrosine antibody was added to each well for another 1 h of incubation. […] The IC50 was obtained from curves of percentage inhibition with eight concentrations of compound. As the contaminants in the enzyme preparation are fairly low, the majority of the signal detected by the anti-phosphotyrosine antibody is from EGFR or HER-2. The experiment was performed for three independent times and in triplicate each time.

[2] = tested on: MDA-MB-453 human breast cancer cell line; assay: Anti-proliferation assay (MTT), MDA-MB-453; format: cell-based; settings: 24 h
Description: (§1) MCF-7 human breast cancer cells was cultured in DMEM/10% fetal bovine serum, in 5% CO2 water saturated atmosphere at 37 °C. MDA-MB-453 human breast cancer cells was cultured in L-15 medium in 100% air at 37 °C. Cell suspensions (10000/mL) were prepared and 100 μL/well dispensed into 96-well plates (Costar) giving 1000 cells/well. The plates were returned to the incubator for 24 h to allow the cells to reattach. These compounds were initially prepared at 20 mM in DMSO. Aliquots (200 μL) were diluted into 20 mL culture medium giving 200 μM, and 10 serial dilutions of 3× prepared. Aliquots (100 μL) of each dilution were added to the wells, giving doses ranging from 100 μM to 0.005 μM. After a further incubated at 37 °C for 24 h in a humidified atmosphere with 5% CO2, the cell viability was assessed by the conventional 3-(4,5-dimethylthiazol-2-yl)-2,5-diphenyltetrazolium bromide (MTT) reduction assay and carried out strictly according to the manufacturer instructions (Sigma). The absorbance at 590 nm was recorded using LX300 Epson Diagnostic micro-plate reader. Then GI50 was calculated using SPSS 13.0 software.

[3] = tested on: MCF-7 human breast cancer cell line; assay: Anti-proliferation assay (MTT), MCF-7; format: cell-based; settings: MCF7, 24 h
Description: as §1

[4] = target: EGFR (Homo sapiens, UniProt P00533); assay: EGFR autophosphorylation kinase assay (DELFIA/time-resolved fluorometry)
Sequence of EGFR (P00533 669-1210): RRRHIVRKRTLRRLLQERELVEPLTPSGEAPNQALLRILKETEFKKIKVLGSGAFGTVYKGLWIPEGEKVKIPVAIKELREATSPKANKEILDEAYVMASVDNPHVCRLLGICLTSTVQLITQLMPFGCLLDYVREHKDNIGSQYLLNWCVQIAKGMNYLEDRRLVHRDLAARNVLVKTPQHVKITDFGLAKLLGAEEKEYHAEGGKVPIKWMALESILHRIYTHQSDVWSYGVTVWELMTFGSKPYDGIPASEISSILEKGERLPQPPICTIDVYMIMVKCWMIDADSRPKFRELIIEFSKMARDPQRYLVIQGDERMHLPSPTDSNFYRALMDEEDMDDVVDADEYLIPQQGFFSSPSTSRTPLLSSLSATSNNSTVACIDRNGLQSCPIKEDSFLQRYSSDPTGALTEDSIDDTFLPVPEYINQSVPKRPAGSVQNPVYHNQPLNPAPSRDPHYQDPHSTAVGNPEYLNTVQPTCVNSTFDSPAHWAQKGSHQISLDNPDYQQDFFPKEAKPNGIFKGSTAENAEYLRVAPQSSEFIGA
Description: as §2, §3

Sequence of HER-2 (P04626 676-1245): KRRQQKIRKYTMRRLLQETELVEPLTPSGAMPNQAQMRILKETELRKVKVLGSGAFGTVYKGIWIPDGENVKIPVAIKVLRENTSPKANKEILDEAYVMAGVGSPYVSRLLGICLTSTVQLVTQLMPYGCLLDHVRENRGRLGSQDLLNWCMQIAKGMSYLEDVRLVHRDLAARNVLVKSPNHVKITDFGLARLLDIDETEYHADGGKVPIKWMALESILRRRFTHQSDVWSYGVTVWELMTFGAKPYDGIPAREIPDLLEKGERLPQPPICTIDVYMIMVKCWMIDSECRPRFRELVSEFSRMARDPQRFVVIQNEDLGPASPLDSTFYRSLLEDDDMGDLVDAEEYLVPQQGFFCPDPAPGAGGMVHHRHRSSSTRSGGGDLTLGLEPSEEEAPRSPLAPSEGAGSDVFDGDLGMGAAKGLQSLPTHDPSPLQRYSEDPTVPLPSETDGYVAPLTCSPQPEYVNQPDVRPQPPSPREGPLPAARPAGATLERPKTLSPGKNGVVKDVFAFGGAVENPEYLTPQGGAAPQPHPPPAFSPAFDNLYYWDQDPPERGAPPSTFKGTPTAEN

Structure (SMILES) | melting point | IC50 [1] | SI EGFR/HER-2 [1] | GI50 [2] | GI50 [3] | IC50 [4]
NC(=S)N1N=C(c2ccc3c(c2)OCCO3)CC1c1ccccc1 (stereo not shown) [Compound C1, 3-(2,3-dihydrobenzo[b][1,4]dioxin-6-yl)-5-phenyl-4,5-dihydro-1H-pyrazole-1-carbothioamide] | 166 to 168 °C | 16 ± 1.45 µM | 1.36 | 63.4 ± 6.12 µM | 10 ± 0.91 µM | 21.9 ± 2.03 µM
NC(=S)N1N=C(c2ccc3c(c2)OCCO3)CC1c1ccc2ccccc2c1 (stereo not shown) [Compound C3, 3-(2,3-dihydrobenzo[b][1,4]dioxin-6-yl)-5-(naphthalen-2-yl)-4,5-dihydro-1H-pyrazole-1-carbothioamide] | 204 to 206 °C | 7.18 ± 0.65 µM | 0.62 | 19.9 ± 1.84 µM | 5.3 ± 0.49 µM | 4.42 ± 0.35 µM
NC(=S)N1N=C(c2ccc3c(c2)OCCO3)CC1c1cccc(Cl)c1 (stereo not shown) [Compound C7, 5-(3-chlorophenyl)-3-(2,3-dihydrobenzo[b][1,4]dioxin-6-yl)-4,5-dihydro-1H-pyrazole-1-carbothioamide] | 246 to 248 °C | 62.8 ± 5.67 µM | 0.15 | > 300 µM | 16.8 ± 0.98 µM | 9.45 ± 0.88 µM
NC(=S)N1N=C(c2ccc3c(c2)OCCO3)CC1c1ccccc1F (stereo not shown) [Compound C4, 3-(2,3-dihydrobenzo[b][1,4]dioxin-6-yl)-5-(2-fluorophenyl)-4,5-dihydro-1H-pyrazole-1-carbothioamide] | 169 to 171 °C | 125 ± 10.2 µM | 0.47 | > 300 µM | 185 ± 17.8 µM | 59.3 ± 5.58 µM
NC(=S)N1N=C(c2ccc3c(c2)OCCO3)CC1c1cccc(OCc2ccccc2)c1 (stereo not shown) [Compound C6, 5-(3-(benzyloxy)phenyl)-3-(2,3-dihydrobenzo[b][1,4]dioxin-6-yl)-4,5-dihydro-1H-pyrazole-1-carbothioamide] | 178 to 180 °C | 0.06 ± 0.004 µM | 74.8 | 0.2 ± 0.02 µM | 4.95 ± 0.43 µM | 4.49 ± 0.41 µM
COc1cccc(C2CC(c3ccc4c(c3)OCCO4)=NN2C(N)=S)c1 (stereo not shown) [Compound C5, 3-(2,3-dihydrobenzo[b][1,4]dioxin-6-yl)-5-(3-methoxyphenyl)-4,5-dihydro-1H-pyrazole-1-carbothioamide] | 168 to 170 °C | 86.5 ± 8.05 µM | 0.50 | 135 ± 11.1 µM | 57.2 ± 5.36 µM | 43.6 ± 4.1 µM
NC(=S)N1N=C(c2ccc3c(c2)OCCO3)CC1c1cccc2ccccc12 (stereo not shown) [Compound C2, 3-(2,3-dihydrobenzo[b][1,4]dioxin-6-yl)-5-(naphthalen-1-yl)-4,5-dihydro-1H-pyrazole-1-carbothioamide] | 214 to 216 °C | 0.56 ± 0.05 µM | 5.25 | 2.2 ± 0.18 µM | 4.68 ± 0.42 µM | 2.94 ± 0.26 µM
NC(=S)N1N=C(c2ccc3c(c2)OCCO3)CC1c1cccc(Br)c1 (stereo not shown) [Compound C8, 5-(3-bromophenyl)-3-(2,3-dihydrobenzo[b][1,4]dioxin-6-yl)-4,5-dihydro-1H-pyrazole-1-carbothioamide] | 247 to 249 °C | 0.45 ± 0.04 µM | 19.2 | 1.69 ± 0.15 µM | 5.64 ± 0.52 µM | 8.63 ± 0.78 µM
C#Cc1cccc(Nc2ncnc3cc(OCCOC)c(OCCOC)cc23)c1 [Erlotinib, reference compound] |  |  |  | 1.56 ± 0.14 µM | 0.08 ± 0.006 µM | 

Continued, values first:

melting point | IC50 [1] | SI EGFR/HER-2 [1] | GI50 [2] | GI50 [3] | IC50 [4] | Structure (SMILES)
208 to 209 °C | 0.96 ± 0.08 µM | 35.4 | 8.68 ± 0.84 µM | 15.2 ± 1.4 µM | 34 ± 3.08 µM | NC(=S)N1N=C(c2ccc3c(c2)OCCO3)CC1c1c(F)cccc1F (stereo not shown) [Compound C18, 5-(2,6-difluorophenyl)-3-(2,3-dihydrobenzo[b][1,4]dioxin-6-yl)-4,5-dihydro-1H-pyrazole-1-carbothioamide]
197 to 199 °C | 0.13 ± 0.01 µM | 78.5 | 0.36 ± 0.03 µM | 5.99 ± 0.55 µM | 10.2 ± 0.94 µM | NC(=S)N1N=C(c2ccc3c(c2)OCCO3)CC1c1ccc(OCc2ccccc2)cc1 (stereo not shown) [Compound C16, 5-(4-(benzyloxy)phenyl)-3-(2,3-dihydrobenzo[b][1,4]dioxin-6-yl)-4,5-dihydro-1H-pyrazole-1-carbothioamide]
235 to 237 °C | 1.9 ± 0.15 µM | 25.2 | 11.9 ± 1.05 µM | 28.5 ± 2.8 µM | 47.8 ± 4.54 µM | NC(=S)N1N=C(c2ccc3c(c2)OCCO3)CC1c1ccc(F)cc1 (stereo not shown) [Compound C11, 3-(2,3-dihydrobenzo[b][1,4]dioxin-6-yl)-5-(4-fluorophenyl)-4,5-dihydro-1H-pyrazole-1-carbothioamide]
174 to 175 °C | 12 ± 1.02 µM | 16.3 | 33.4 ± 2.95 µM | > 300 µM | 197 ± 18.5 µM | NC(=S)N1N=C(c2ccc3c(c2)OCCO3)CC1c1ccco1 (stereo not shown) [Compound C19, 3-(2,3-dihydrobenzo[b][1,4]dioxin-6-yl)-5-(furan-2-yl)-4,5-dihydro-1H-pyrazole-1-carbothioamide]
231 to 233 °C | 0.84 ± 0.07 µM | 64.1 | 5.31 ± 0.48 µM | 33.9 ± 3.21 µM | 53.8 ± 5.12 µM | NC(=S)N1N=C(c2ccc3c(c2)OCCO3)CC1c1ccc(Cl)cc1 (stereo not shown) [Compound C12, 5-(4-chlorophenyl)-3-(2,3-dihydrobenzo[b][1,4]dioxin-6-yl)-4,5-dihydro-1H-pyrazole-1-carbothioamide]
259 to 261 °C | 1.23 ± 0.1 µM | 68.5 | 9.12 ± 0.89 µM | 135 ± 11.6 µM | 84.3 ± 7.81 µM | NC(=S)N1N=C(c2ccc3c(c2)OCCO3)CC1c1ccc(I)cc1 (stereo not shown) [Compound C14, 3-(2,3-dihydrobenzo[b][1,4]dioxin-6-yl)-5-(4-iodophenyl)-4,5-dihydro-1H-pyrazole-1-carbothioamide]
 |  |  | 0.03 ± 0.002 µM | 3.12 ± 0.24 µM |  | CS(=O)(=O)CCNCc1ccc(-c2ccc3ncnc(Nc4ccc(OCc5cccc(F)c5)c(Cl)c4)c3c2)o1 [Lapatinib, reference compound]
